# Source: BindingDB's records for PubMed 3009454 (University of Wisconsin, 1986)
# Target: T1, Aryl hydrocarbon receptor (Mus musculus, UniProt P30561)
# T1 sequence (P30561 whole entry): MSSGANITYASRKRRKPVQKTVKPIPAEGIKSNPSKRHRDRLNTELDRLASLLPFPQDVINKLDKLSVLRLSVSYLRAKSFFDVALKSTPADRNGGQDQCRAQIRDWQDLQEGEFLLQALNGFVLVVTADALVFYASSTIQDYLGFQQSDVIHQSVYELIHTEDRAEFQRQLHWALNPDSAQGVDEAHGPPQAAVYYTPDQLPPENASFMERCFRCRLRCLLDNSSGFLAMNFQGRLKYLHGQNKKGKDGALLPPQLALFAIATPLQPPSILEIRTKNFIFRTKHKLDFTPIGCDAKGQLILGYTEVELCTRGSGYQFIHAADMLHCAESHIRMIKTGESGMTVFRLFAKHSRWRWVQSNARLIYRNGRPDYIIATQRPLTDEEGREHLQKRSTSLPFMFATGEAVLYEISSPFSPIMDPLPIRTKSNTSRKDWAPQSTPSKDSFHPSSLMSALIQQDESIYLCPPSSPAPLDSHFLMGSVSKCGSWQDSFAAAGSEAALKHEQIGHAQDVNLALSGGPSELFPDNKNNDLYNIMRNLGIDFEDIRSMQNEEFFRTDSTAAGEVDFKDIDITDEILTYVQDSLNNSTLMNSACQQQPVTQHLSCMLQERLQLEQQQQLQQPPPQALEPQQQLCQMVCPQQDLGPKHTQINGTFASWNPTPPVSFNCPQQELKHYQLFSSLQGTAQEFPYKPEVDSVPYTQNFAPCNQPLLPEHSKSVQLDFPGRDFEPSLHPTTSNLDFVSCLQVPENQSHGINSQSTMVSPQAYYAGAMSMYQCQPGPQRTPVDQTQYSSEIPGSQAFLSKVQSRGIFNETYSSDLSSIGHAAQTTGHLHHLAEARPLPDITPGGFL
# Test: Binding Assay
# Settings: pH 7.5; 0 °C
# Procedure: The equilibrium dissocation constants, KD values for the photoaffinity ligands were determined by a competitive binding assay.
row,SMILES,Kd [nM]
1,"[N-]=[N+]=Nc1cc(Cl)cc2c1Oc1cc(Cl)c(Cl)cc1O2 [Photoaffinity ligand, 1]",0.44
2,"[N-]=[N+]=Nc1c(I)c(Cl)cc2c1Oc1cc(Cl)c(Cl)cc1O2 [Photoaffinity ligand, 2]",2.1
3,"[N-]=[N+]=Nc1cc2c(cc1Cl)Oc1cc(Cl)c(Cl)cc1O2 [Photoaffinity ligand, 3]",0.49
4,"[N-]=[N+]=Nc1cc2c(cc1I)Oc1cc(Br)c(Br)cc1O2 [Photoaffinity ligand, 4]",0.76
5,"[N-]=[N+]=Nc1ccc([N+](=O)[O-])c(C(=O)NCc2c(Cl)c(Cl)cc3c2Oc2cc(Cl)c(Cl)cc2O3)c1 [Photoaffinity ligand, 5]",13
6,"[N-]=[N+]=Nc1ccc(C(=O)NCc2c(Cl)c(Cl)cc3c2Oc2cc(Cl)c(Cl)cc2O3)cc1 [Photoaffinity ligand, 6]",8.1
7,"[N-]=[N+]=Nc1ccc(C(=O)NCc2c(Cl)c(Cl)cc3c2Oc2cc(Cl)c(Cl)cc2O3)c(O)c1 [Photoaffinity ligand, 7]",113
8,"[N-]=[N+]=Nc1ccc(NCCCCCC(=O)NCc2c(Cl)c(Cl)cc3c2Oc2cc(Cl)c(Cl)cc2O3)c([N+](=O)[O-])c1 [Photoaffinity ligand, 8]",11
